From patent US7384971B2, “Phytochemicals for the treatment of cervical dysplasia” (BioResponse L.L.C., priority 1999, dated 2008)

How the values were obtained:
women with mastalgia = conditions: cited from earlier work
women with endometriosis = conditions: endometriosis therapy; cited from earlier work
[1] = tested on: 2-hydroxy estrogen metabolism; conditions: women; cited from earlier work
[2] = tested on: recurrent laryngeal papillomatosis and cervical dysplasia; conditions: dietary supplementation; cited from earlier work
[3] = tested on: person with chronic recurring breast pain (mastalgia); experiment: Case study: processed DIM for chronic recurring breast pain (Example 5); assay type: in vivo, human; set-up: key to Typical Breast Pain Score / Typical Breast Soreness Score: 0 = none; 1 = mild; 2 = moderate; 3 = significant; 4 = severe; conditions: After DIM, 225 mg per day, one month
Excerpt: The purpose of this study was to determine whether dietary supplementation with the cruicferous phytochemical, Diindolylmethane (DIM) is effective in relieving the pain of this chronic condition. patient one is a person referred for evaluation of perimenopausal symptoms of chronic recurring breast pain. They had been troubled by breast pain for many years with recent worsening in their symptoms. They had undergone a vaginal hysterectomy due to excessive and painful menstrual periods. Since their ovaries were left intact, they have received no Hormonal Replacement Therapy (HRT). During the last 4 years they experienced a monthly cycle of breast pain for about one week of each month. The breast pain was bilateral, associated with significant tenderness to touch, and a discomfort described as “heaviness or swelling.” A trial of a women's health supplement containing Don Quai provided no relief. Evaluation included a baseline morning urine sample and close assessment of their symptoms of breast pain during the ensuing month. Following this, bioavailable DIM was begun as a supplement at 225 mg per day together with increased dietary fiber. […] A second urine sample was obtained after one month on the DIM supplement.

[4] = tested on: 2-hydroxy and 16-hydroxy estrogen metabolites; experiment: Urinary estrogen metabolites, Elisa based assay (Estratest); assay type: in vivo, human; conditions: After DIM, 225 mg per day
Description: Evaluation included a baseline morning urine sample and close assessment of their symptoms of breast pain during the ensuing month. Following this, bioavailable DIM was begun as a supplement at 225 mg per day together with increased dietary fiber. […] A second urine sample was obtained after one month on the DIM supplement.
The urine samples were subsequently analyzed for their levels of 2-hydroxy and 16-hydroxy estrogen metabolites, using an Elisa based assay (Estratest, Immunacare, Inc., Bethlehem, Pa.).

[5] = tested on: person with severe endometriosis; experiment: Case study: processed DIM for endometriosis pain (Example 8); assay type: in vivo, human
Excerpt: patient two is a slender and athletic person who sought alternatives in their management of severe endometriosis. Their symptoms of recurrent mid-cycle and menstrually associated pain have been diagnosed as due to endometriosis based on pelvic laparoscopy. This procedure confirmed aggressive endometriosis with ectopic endometrial implants removed from the pelvis and associated with intestinal serosal spread. A history of 2 years of intense pelvic pain at mid-cycle and during menstrual flow was reported prior to the laparoscopy. Their parent gives a history of painful menstrual periods […]. They went on to develop ovarian cancer requiring radical surgery […]. A maternal aunt developed cervical cancer requiring surgery. […] Like the patient, a younger sibling has been troubled with painful menstrual periods and pelvic pain leading to laparoscopy and the diagnosis of endometriosis.
Following the patient's laparoscopy, one menstrual period was still associated with significant pain. Supplementation with bioavailable processed DIM was begun approximately 6 weeks following the laparoscopy. Initial supplementation with bioavailable processed DIM provided 300 mg/day for one month which was reduced to 150 mg/day thereafter. […] The patient continued DIM supplementation for about one year.

serum Ca-125 antigen = experiment: Serial serum Ca-125 antigen levels in endometriosis patient; assay type: in vivo, human
Excerpt: Diagnosis of the endometriosis and reduction in pain severity correlated with serial levels of serum Ca-125 antigen. Ca-125 is a serum marker with documented usefulness in monitoring the activity of endometriosis in a given patient (Pittaway D E and Fayez J A, 1986, “The use of CA-125 in the diagnosis and management of endometriosis”, Fertil Steril 46:790).

MCF7 breast cancer cells = conditions: tested in the absence of estrogen; cited from earlier work
colon cancer cells = conditions: cited from earlier work
[6] = tested on: non-cancerous colon cells; conditions: cited from earlier work
[7] = tested on: carcinogen-induced breast cancer; conditions: oral; cited from earlier work
[8] = Follow up Visit #3, Use of DIM YES
[9] = Follow-up Visit #1, Use of DIM YES
[10] = Follow-up Visit #2, Use of DIM YES

In the case of `C#C[C@]1(O)CC[C@H]2[C@@H]3CCC4=Cc5oncc5C[C@]4(C)[C@H]3CC[C@@]21C` [Danazol], the “Response rate in mastalgia” value (women with mastalgia; severe breast pain) is given as 70% and the “Women experiencing adverse side effects” value (women with endometriosis) is given as “up to 80%”.
In the case of `OCc1c[nH]c2ccccc12` [I3C, Indole-3-carbinol], the “Effect on 2-hydroxy estrogen metabolism” value [1] is listed as “increase 2-hydroxy estrogen metabolism” and the Clinical outcome [2] is listed as “some clinical improvement”.
For `CC(=O)O[C@]1(C(C)=O)CC[C@H]2[C@@H]3C[C@H](C)C4=CC(=O)CC[C@]4(C)[C@H]3CC[C@@]21C` [medroxyprogesterone acetate], the “Relief of mastalgia versus placebo” value (women with mastalgia; controlled trial) is listed as “no better than placebo”.
For `c1ccc2c(Cc3c[nH]c4ccccc34)c[nH]c2c1` [DIM, 3,3′-Diindolylmethane], the “Typical Breast Soreness Score (in words)” value [3] was “Absent”, the “Typical Breast Pain Score (in words)” value ([3]; one patient) was “Absent” and the “Typical Breast Pain Score” value ([3]; score out of 4) was 0/4. The “Typical Breast Soreness Score” value ([3]; score out of 4) was 0/4, the “2-Hydroxy estrone level, urinary” value ([4]; morning urine after one month) was 26.4 ng/ml/mg Creatinine and the “2-Hydroxy to 16-Hyroxy estrone ratio” value ([4]; urine after one month) was 5.08. For the same compound, the “16-Hydroxy estrone level, urinary” value ([4]; urine after one month) was 5.1 ng/ml/mg Creatinine, the “Total urinary estrone metabolites” value ([4]; urine after one month) was 31.3 ng/ml/mg Creatinine and the “Pain Level” value [5, 8] was “Improved”. For the same compound, the “Pain Level” value [5, 9] was “Improved”, the “Pain Level” value [5, 10] was “Improved” and the “Comfort of menstrual periods / need for analgesics” value ([5]; supplementation for about one year) was “more comfortable, no longer requiring analgesics”. The “Ca-125 Antigen” value (serum Ca-125 antigen; [8]) was 34.0, the “Ca-125 Antigen” value (serum Ca-125 antigen; [9]) was 26.4 and the “Ca-125 Antigen” value (serum Ca-125 antigen; [10]) was 23.2. For the same compound, the “Effect on cell growth” value (MCF7 breast cancer cells) was “promoted growth”, the “Effect on cell growth” value (colon cancer cells) was “selective growth inhibitory activity” and the Growth inhibitory activity [6] was “not observed”. The “Effect on tumor growth” value [7] was “impede the growth”.
